According to patent US20070135436A1, “Chemical compounds” (Clavis Pharma AS, priority 2005, published 2007):
Where two headings read alike, the source gives them in different places.

What was measured:
several cell lines = settings: prior art references; cited from earlier work
[1] = tested on: breast cancer cell line MaTu; assay: MTT growth inhibition in breast cancer cell line MaTu; assay type: cell-based, human; settings: MaTu cells; for IC50: 4 days incubation, MTT, read-out: IC50 μM ± Standard Deviation
Procedure: The breast cancer cell line MaTu was seeded, 5×10^3 cells per well, in 96-well-plates. The medium was RMPI 1640 with 2 mM Glutamine and 10% Foetal Bovine Serum. 24 hours later the test compounds were added in 6 concentrations. The cells were incubated for 4 days. The MTT solution was added to each well and incubated for 4 hours. The samples were read by an ELISA reader at 540 nm. The IC50 values were determined from growth curves. The test compounds were troxacitabine elaidic amid, troxacitabine petroselaidoate, troxacitabine-petroselaidic amide and troxacitabine γ-linolenoate.

| Structure (SMILES) | IC50 ([1]; Homo sapiens, 96 h) [µM] | further results |
| --- | --- | --- |
| CCCCCCCCC=CCCCCCCCC(=O)Nc1ccn(C2COC(CO)O2)c(=O)n1 (stereo not drawn) [oleic acid amid derivative] |  | times better activity than the elaidic acid amide counterpart (several cell lines): 2 to 5 times |
| CCCCCCCC/C=C/CCCCCCCC(=O)Nc1ccn([C@@H]2CO[C@H](CO)O2)c(=O)n1 [troxacitabine elaidic-amide, Troxacitabine N^4-elaidic Acid Amide, reference compound] |  | IC50 [1]: 3.58 ± 2.56 µM |
| CCCCCCCCCCC/C=C/CCCCC(=O)OC[C@H]1OC[C@@H](n2ccc(N)nc2=O)O1 [troxacitabine petroselaidoate, Troxacitabine-2′-hydroxymethyl-petroselaidoate] | 0.18 ± 0.12 | fold more active than troxacitabine elaidic amide ([1]; relative to troxacitabine elaidic amide): 20 fold |
| CCCCC/C=C\C/C=C\C/C=C\CCCCC(=O)OC[C@H]1OC[C@@H](n2ccc(N)nc2=O)O1 [troxacitabine γ-linolenoate, Troxacitabine 2′-hydroxymethyl-6,9,12-linolenoate] | 0.83 ± 0.59 |  |
| CCCCCCCCCCC/C=C/CCCCC(=O)Nc1ccn([C@@H]2CO[C@H](CO)O2)c(=O)n1 [troxacitabine-petroselaidic amide, Troxacitabine N^4-petroselaidic Acid Amide] | 0.15 ± 0.07 |  |
